Measurements taken from US20250051510A1, “CARBON-IODINE CONJUGATED POLYMER AND PREPARATION THEREOF, AND USE THEREOF FOR PREPARING LOCALIZATION MARKER” (Huazhong University of Science and Technology, priority 2021, published 2025).

Legend:
[1] = Local injection into rat leg muscles under CT guidance, CT marking over time; assay type: in vivo; conditions: rat leg muscle, iodine content increased by 25 times
Experimental: In order to verify whether the super-strong CT imaging effect of PIDA is practically applicable, the PIDA dispersion and iohexol with the same iodine content were injected locally into leg muscles of a rat respectively under CT guidance in the present invention. For effective CT marking, the CT signal intensity thereof should be 2 times or more that of background tissues. A background CT signal of rat muscle tissues is about 50 HU, so the CT marking signal intensity exceeding 100 HU can be regarded as effective CT marking. […] To further verify the high efficiency and location stability of PIDA CT imaging, in the present invention, iohexol with the iodine content being increased by 25 times was injected into a corresponding leg muscle site of a rat.

rat erythrocytes = assay: Hemolysis test with rat erythrocytes; assay type: cell-based; conditions: PIDA dispersions of different concentrations; Triton = 100% hemolysis control
Experimental: When a material is applied in the biomedical field, in addition to the special imaging/treatment effect of the material, the biocompatibility of the material itself is the topic that people are most concerned about. At the cell level, PIDA dispersions of different concentrations were mixed with rat erythrocytes in the present invention. […] In addition, in the present invention, PIDA dispersions of different concentrations were respectively incubated together with 4Tl cells (mouse breast cancer cells), NIH 3T3 cells (mouse embryonic fibroblasts) and HEK 293T (human embryonic kidney cells) for 12 hours, and cell viability was verified by means of MTT verification.

Molecule: CC(=O)N(CC(O)CO)c1c(I)c(C(=O)NCC(O)CO)c(I)c(C(=O)NCC(O)CO)c1I (centres unmarked) [iohexol]
- time until CT enhancement completely disappeared [1]: ≤ 6 h

Molecule: Triton
- hemolysis rate (rat erythrocytes): complete hemolysis
